Assay results as given in the supplement of paper PMC13380429.

Legend:
Details in all cases: 72 h
[1] = tested on: Caco-2; test: cell viability relative to DMSO; higher = less toxic
[2] = tested on: Vero E6; test: as above
[3] = tested on: Calu-3; test: as above
[4] = tested on: HepG2; test: as above
[5] = tested on: U2OS; test: as above
[6] = tested on: Caco-2; test: relative viability EC50 (midpoint between 100% and the lowest measured viability); higher = less toxic
[7] = tested on: Vero E6; test: as above
[8] = tested on: Calu-3; test: as above
[9] = tested on: HepG2; test: as above
[10] = tested on: U2OS; test: as above
[11] = tested on: Caco-2; test: drug sensitivity score (DSS) for viability; higher = more toxic; extreme values may be limits of the assay
[12] = tested on: Vero E6; test: as above
[13] = tested on: Calu-3; test: as above
[14] = tested on: HepG2; test: as above
[15] = tested on: U2OS; test: as above

Row | SMILES | cell viability ([1]; 1 nM) | cell viability ([1]; 10 nM) | cell viability ([1]; 100 nM) | cell viability ([1]; 1000 nM) | cell viability ([1]; 10000 nM) | cell viability ([2]; 1 nM) | cell viability ([2]; 10 nM) | cell viability ([2]; 100 nM) | cell viability ([2]; 1000 nM) | cell viability ([2]; 10000 nM) | cell viability ([3]; 1 nM) | cell viability ([3]; 10 nM) | cell viability ([3]; 100 nM) | cell viability ([3]; 1000 nM) | cell viability ([3]; 10000 nM) | cell viability ([4]; 1 nM) | cell viability ([4]; 10 nM) | cell viability ([4]; 100 nM) | cell viability ([4]; 1000 nM) | cell viability ([4]; 10000 nM) | cell viability ([5]; 1 nM) | cell viability ([5]; 10 nM) | cell viability ([5]; 100 nM) | cell viability ([5]; 1000 nM) | cell viability ([5]; 10000 nM) | relative viability EC50 [6] | relative viability EC50 [7] | relative viability EC50 [8] | relative viability EC50 [9] | relative viability EC50 [10] | drug sensitivity score [11] | drug sensitivity score [12] | drug sensitivity score [13] | drug sensitivity score [14] | drug sensitivity score [15]
1 | C#CCC(Cc1cnc2nc(N)nc(N)c2n1)c1ccc(C(=O)N[C@@H](CCC(=O)O)C(=O)O)cc1 (stereo not given in full) [pralatrexate] | 97% | 81.8% | 55.3% | 49.6% | 56.2% | 98.9% | 19.2% | 14.4% | 16.7% | 14.2% | 107% | 102% | 91.4% | 88.2% | 93.6% | 99.2% | 22.9% | 21.3% | 17.8% | 17.1% | 105% | 76.8% | 97.2% | 90% | 98.6% | 0.0164 µM | 0.0036 µM | > 10 µM | 0.0038 µM | > 10 µM | 16.7 | 36.7 | 0.8 | 35.4 | 0
2 | C[C@]12C=CC(=O)C=C1CC[C@@H]1[C@@H]2[C@@H](O)C[C@@]2(C)[C@H]1CC[C@]2(O)C(=O)COP(=O)(O)O [prednisolone-sodium-phosphate] | 99.6% | 89.5% | 98.4% | 92.8% | 91.7% | 102% | 103% | 108% | 101% | 89.6% | 97.4% | 92.7% | 101% | 82.5% | 106% | 100% | 100% | 104% | 99.2% | 100% | 95.1% | 105% | 97.9% | 90.8% | 97% | > 10 µM | > 10 µM | > 10 µM | > 10 µM | > 10 µM | 0 | 0 | 0 | 0 | 0
3 | COCCOc1ccc(N2CCN(CCn3ncc4c3nc(N)n3nc(-c5ccco5)nc43)CC2)cc1 [preladenant] | 98.1% | 99% | 98.1% | 91.8% | 93.1% | 91.2% | 99.5% | 97.7% | 102% | 99.6% | 106% | 112% | 97.2% | 92.3% | 107% | 97% | 105% | 94% | 99.6% | 93.2% | 97.6% | 101% | 95.3% | 95.1% | 96.9% | > 10 µM | > 10 µM | > 10 µM | > 10 µM | > 10 µM | 0 | 0 | 0 | 0 | 0
4 | CC[N+](C)(CC)CCC[n+]1c(-c2ccccc2)c2cc(N)ccc2c2ccc(N)cc21 [propidium-iodide] | 91.3% | 99.2% | 93.1% | 95.3% | 75.7% | 96.8% | 99.5% | 98.3% | 96% | 95.7% | 100% | 99.6% | 102% | 104% | 92.3% | 93.8% | 104% | 90.8% | 90.4% | 80.1% | 99.2% | 103% | 98.4% | 99.8% | 83.7% | > 10 µM | > 10 µM | > 10 µM | > 10 µM | > 10 µM | 1.5 | 0 | 0 | 1.2 | 0.3
5 | NC(=O)c1cnccn1 [pyrazinamide] | 104% | 120% | 92.8% | 107% | 89.8% | 105% | 93.5% | 106% | 95.3% | 104% | 99.5% | 100% | 94.2% | 104% | 93% | 103% | 103% | 105% | 97.9% | 103% | 93.7% | 101% | 98% | 104% | 96% | > 10 µM | > 10 µM | > 10 µM | > 10 µM | > 10 µM | 0 | 0 | 0 | 0 | 0
6 | O=C(O)c1cccnc1C(=O)O [quinolinic-acid] | 103% | 110% | 96.8% | 103% | 90.3% | 108% | 97.4% | 108% | 99.2% | 102% | 91.5% | 105% | 97.1% | 100% | 101% | 105% | 99.5% | 97.6% | 102% | 97.8% | 98.2% | 103% | 98.6% | 102% | 97.7% | > 10 µM | > 10 µM | > 10 µM | > 10 µM | > 10 µM | 0 | 0 | 0 | 0 | 0
